Measured values reported in patent US20100197584A1, “USE OF CURCUMIN TO BLOCK BRAIN TUMOR FORMATION IN MICE” (Research Foundations of the City University of- New York, priority 2007, published 2010).

How the values were obtained:
[1] = system: B16F10 (mouse melanoma) cells; assay: Cell viability assay using MTT, B16F10; assay type: cell-based; conditions: 25 μM and 50 μM, 48 h or 96 h, versus control cells (FIG. 6a)
Procedure: (§1) Cells. B16F10 (mouse melanoma), GL261 (mouse glioma), HOG (human oligodendroglioma), A549 (human lung cancer), and N18 (mouse neuroblastoma) cells were cultured separately in DMEM containing 10% (v/v) fetal bovine serum and 1% (v/v) penicillin-streptomycin (PS) and allowed to grow to 40% confluence in a 96-well plate.
(§2) Curcumin Treatment. Two hours before drug treatment, the medium in each well was replaced with 200 μl Neurobasal medium supplemented with 2% (v/v) B27 and 1% (v/v) PS (Drug-treatment Medium). A stock solution (40 mM) of curcumin was prepared in sterile dimethyl sulfoxide (DMSO) (Example 1). Through serial dilution of each stock solution in Drug-treatment Medium, the following concentrations were obtained: 20 μM and 50 μM (for caspase 3/7 assays) or 25 μM and 50 μM (for MTT assays). […] Additionally, the background absorbance was determined from parallel wells containing only the Drug-treatment Medium plus a particular concentration of the drug (no cells).
(§3) Cell Viability Assay Using MTT (3-(4,5-Dimethylthiazolyl-2)-2,5-Diphenyltetrazolium Bromide). […] Absorbance was measured at 570 nm using a 96-well multi scanner auto-reader with the extraction buffer used as blank. For curcumin samples, the absorbance obtained from the corresponding curcumin plus medium samples was subtracted.

[2] = system: A549 (human lung cancer) cells; assay: Cell viability assay using MTT, A549; assay type: cell-based; conditions: 25 μM and 50 μM, 48 h or 96 h, versus control cells (FIG. 6d)
Procedure: as §1, §2, §3

[3] = system: normal (non-tumor) brain cells; assay: Normal brain cell viability (MTT on brain sections); assay type: in vivo; conditions: 200 μl of 667 μM, tail vein, three consecutive days; compared to carrier-injected mice (FIG. 10)
Procedure: In each experiment, three mice were injected with 200 μl of PBS containing 3% DMSO, and three mice were injected with 200 μl of 667 μM curcumin (as described earlier) through the tail vein on three consecutive days by the method described above. On the fourth day, the mice were perfused with PBS through the heart, and the brains sectioned into 400-μm sections. Similar brain sections were also made from untreated mice which were then treated with 1 mM H2O2 in PBS for one hour, followed by incubation in H2O2-free DTM for three hours. These samples were used as a positive control for cell death.
The sections from each mouse were placed in 400 μl PBS in one well of a 48-well plate (i.e. three wells for three mice) and then treated with 200 μl of MTT (5 mg/ml) per well with gentle mixing at 37° C. for about 2 hours. Subsequently, 800 μl of the lysis buffer was added to each well, and the plate was sealed and incubated overnight at 37° C. with gentle mixing. Three 100-μl portions of the tissue solution obtained were next transferred to three respective wells of a 96-well plate (i.e. three wells per mouse and nine wells for three mice in one group) and absorbance at 570 nm was measured using a 96-well multi scanner auto-reader. Results obtained were normalized to protein levels and then expressed as percent of carrier-treated samples.

[4] = system: melanoma cell lines; conditions: melanoma cell lines (Siwak et al. 2005); cited from earlier work
[5] = cited from earlier work
[6] = system: rat glioma cells; conditions: rat glioma cells in vitro (Karmakar 2006; Dhandapani 2007); cited from earlier work
[7] = system: phospho-NF-κB; assay: Western blot of B16F10 cells, phospho-NF-κB; assay type: cell-based, mouse; conditions: 50 μM (FIG. 9)
Procedure: B16F10 cells were cultured in 10-cm plates and then treated in duplicate with carrier or curcumin (50 μM). Following treatment for appropriate time periods, the cells were washed with PBS, lysed in RIPA buffer (PBS containing 1% Nonidet P40, 0.5% sodium deoxycholate, 0.1% SDS, 0.5 mM Na3VO4 plus freshly added PMSF and protease inhibitor cocktail; Boeringer-Roche), and then 20 μg of lysate protein (per lane) were analyzed by SDS-10% PAGE and Western blot analysis. Antibody concentrations used were: anti-phospho-NF-κB (1:1000) (Santa Cruz Biotechnology, Santa Cruz, Calif.), anti-phospho-Akt (1:5000) (Cell Signaling, CA), anti-cyclin D1 (1:1000) (Cell Signaling, CA), anti-BclXL (1:500) (Santa Cruz Biotechnology), anti-VEGF (1:500) (Santa Cruz Biotechnology), and anti-β-actin (1:1000) (Sigma, St. Louis, Mo.).

[8] = system: N18 (mouse neuroblastoma) cells; assay: Cell viability assay using MTT, N18; assay type: cell-based; conditions: 25 μM and 50 μM, 48 h or 96 h, versus control cells (FIG. 6c)
Procedure: as §1, §2, §3

[9] = system: GL261 (mouse glioma) cells; assay: Cell viability assay using MTT, GL261; assay type: cell-based; conditions: 25 μM and 50 μM, 48 h or 96 h, versus control cells (FIG. 6b)
Procedure: as §1, §2, §3

## COc1cc(/C=C/C(=O)CC(=O)/C=C/c2ccc(O)c(OC)c2)ccc1O [curcumin]
[1]
  cell viability (MTT): dramatic decrease
[2]
  cell viability (MTT): dramatic decrease
[3]
  cell viability in the brain (MTT activity): did not cause suppression of cell viability
[4]
  apoptosis: induces apoptosis
[5]
  solubility in water: very low
[6]
  apoptosis: triggers apoptosis
[7]
  phospho-NF-κB (Western blot): suppression
[8]
  cell viability (MTT): dramatic decrease
[9]
  cell viability (MTT): dramatic decrease
